Key:
Oryctolagus cuniculus = organism: Oryctolagus cuniculus; test: Ability to antagonise the contractile effects of the selective NK2 receptor agonist [B-ala8]NKA in the rabbit pulmonary artery (RPA); assay type: functional; conditions: read-out: pA2 (converted)
Substance-K receptor [1] = biological target: T1, Substance-K receptor (Homo sapiens, UniProt P21452); test: Binding affinity for human tachykinin receptor 2 expressed in CHO cells using [125I]- NKA radioligand; assay type: cell-based
T1 sequence (P21452 whole entry): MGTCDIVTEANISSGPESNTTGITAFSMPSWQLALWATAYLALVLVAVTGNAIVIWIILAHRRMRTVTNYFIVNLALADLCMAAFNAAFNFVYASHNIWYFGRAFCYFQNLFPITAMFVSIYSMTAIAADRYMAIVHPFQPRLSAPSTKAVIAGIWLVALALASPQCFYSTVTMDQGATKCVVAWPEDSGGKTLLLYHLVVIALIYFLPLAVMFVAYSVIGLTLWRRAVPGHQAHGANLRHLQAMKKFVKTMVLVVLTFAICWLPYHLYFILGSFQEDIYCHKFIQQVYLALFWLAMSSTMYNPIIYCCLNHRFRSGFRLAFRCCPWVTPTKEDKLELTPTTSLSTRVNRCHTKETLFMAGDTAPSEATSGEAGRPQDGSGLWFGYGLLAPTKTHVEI

[2] = biological target: T2, Substance-K receptor (Rattus norvegicus) (UniProt P16610); test: Binding affinity towards […] using [125I]- NKA radioligand expressed in rat duodenum at 100 nM
T2 sequence (whole entry): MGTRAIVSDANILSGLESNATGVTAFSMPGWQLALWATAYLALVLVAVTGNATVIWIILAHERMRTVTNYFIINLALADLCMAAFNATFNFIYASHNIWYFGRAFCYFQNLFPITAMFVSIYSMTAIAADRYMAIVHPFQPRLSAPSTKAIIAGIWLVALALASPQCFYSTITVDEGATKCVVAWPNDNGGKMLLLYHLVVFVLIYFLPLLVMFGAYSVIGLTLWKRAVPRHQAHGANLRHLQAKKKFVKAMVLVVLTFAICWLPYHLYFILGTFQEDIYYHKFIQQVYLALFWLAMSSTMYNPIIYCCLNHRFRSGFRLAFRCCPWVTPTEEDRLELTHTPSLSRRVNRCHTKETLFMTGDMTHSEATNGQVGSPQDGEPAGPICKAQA

Substance-K receptor [3] = biological target: T1, Substance-K receptor; test: Binding affinity towards human Tachykinin receptor 2 using [125I]- NKA radioligand expressed in CHO cells; assay type: cell-based

Row | SMILES | pIC50 (Substance-K receptor [1]) | inhibition [2] [%] | pIC50 (Substance-K receptor [3]) | Kb (Oryctolagus cuniculus) [nM]
1 | CN(CC(CCN1CCCCC1)c1ccc(Cl)c(Cl)c1)C(=O)c1ccccc1 (stereo not given) | 6.3 | – | – | –
2 | O=S(=O)(c1ccccc1)N1CCC(CCN2CC(N3CCOCC3)C2)(c2ccc(Cl)c(Cl)c2)C1 (stereo not given) | 6.7 | – | – | 63.1
3 | CN(CC(CCN1CCC(O)(c2ccccc2)CC1)c1ccc(Cl)c(Cl)c1)C(=O)c1ccccc1 (stereo not given) | 8.9 | – | – | 0.316
4 | O=C(CC1CC1)N1CCC(CCN2CC(N3CCOCC3)C2)(c2ccc(Cl)c(Cl)c2)C1 (stereo not given) | 6.3 | – | – | –
5 | CN(CC(CCN1CCCC(n2c(=O)[nH]c3ccccc32)C1)c1ccc(Cl)c(Cl)c1)C(=O)c1ccccc1 (stereo not given) | 7.1 | – | – | –
6 | CN(CC(CCN1CCC(n2c(O)nc3ccccc32)C1)c1ccc(Cl)c(Cl)c1)C(=O)c1ccccc1 (stereo not given) | 7.4 | – | – | –
7 | CN(CC(CCN1CCC(c2ccccc2)CC1)c1ccc(Cl)c(Cl)c1)C(=O)c1ccccc1 (stereo not given) | < 7 | – | – | –
8 | CN(CC(CCN1CC(N2CCOCC2)C1)c1ccc(Cl)c(Cl)c1)C(=O)c1ccccc1 (stereo not given) | 7.7 | – | – | 1.26
9 | CN(CC(CCN1CCC(n2c(O)nc3ccccc32)CC1)c1ccc(Cl)c(Cl)c1)C(=O)c1ccccc1 (stereo not given) | 8.9 | 81 | – | 3.98
10 | COc1ccccc1C(=O)N1CCCC(CCN2CC(N3CCOCC3)C2)(c2ccc(Cl)c(Cl)c2)C1 (stereo not given) | – | – | – | 20
11 | CC(=O)NC1(c2ccccc2)CCN(CCC(CN(C)C(=O)c2ccccc2)c2ccc(Cl)c(Cl)c2)CC1 (stereo not given) | – | – | 8.9 | 0.794

Further lines, with some results ahead:

Row | pIC50 (Substance-K receptor [1]) | inhibition [2] [%] | pIC50 (Substance-K receptor [3]) | SMILES | Kb (Oryctolagus cuniculus) [nM]
12 | 7.7 | – | – | CN(CC(CCN1CCC(n2ccnc2)CC1)c1ccc(Cl)c(Cl)c1)C(=O)c1ccccc1 (stereo not given) | 5.01
13 | 8.1 | – | – | CN(CC(CCN1CCC(n2cnc3ccccc32)CC1)c1ccc(Cl)c(Cl)c1)C(=O)c1ccccc1 (stereo not given) | 2.51
14 | 8.4 | – | – | CN(CC(CCN1CCCC(n2c(O)nc3ccccc32)CC1)c1ccc(Cl)c(Cl)c1)C(=O)c1ccccc1 (stereo not given) | 3.98
15 | 7.2 | – | – | O=C(c1ccccc1)N1CC(CCN2CC(N3CCOCC3)C2)(c2ccc(Cl)c(Cl)c2)C1 | 7.94
16 | 6.8 | – | – | CN(CC(CCN1CCC(n2cncn2)CC1)c1ccc(Cl)c(Cl)c1)C(=O)c1ccccc1 (stereo not given) | 79.4
17 | – | 61 | – | CCN(CC)C(=O)C1CCCN(CCC(CN(C)C(=O)c2ccccc2)c2ccc(Cl)c(Cl)c2)C1 (stereo not given) | –
18 | 6.4 | – | – | CN(CC(CCN1CCC(O)CC1)c1ccc(Cl)c(Cl)c1)C(=O)c1ccccc1 (stereo not given) | –
19 | 7.3 | – | – | CN(CC(CCN1CCC(c2nc3ccccc3[nH]2)CC1)c1ccc(Cl)c(Cl)c1)C(=O)c1ccccc1 (stereo not given) | 50.1
20 | 6.6 | – | – | CN(CC(CCN1CCC(O)(c2ncc[nH]2)CC1)c1ccc(Cl)c(Cl)c1)C(=O)c1ccccc1 (stereo not given) | –
21 | 6.8 | – | – | CN(CC(CCN1CC(n2ccnc2)C1)c1ccc(Cl)c(Cl)c1)C(=O)c1ccccc1 (stereo not given) | 25.1
22 | 7.5 | – | – | O=C(c1ccccc1)N1CCC(CCN2CC(N3CCOCC3)C2)(c2ccc(Cl)c(Cl)c2)C1 (stereo not given) | –

— ChEMBL document CHEMBL1144946, “4-Amino-2-(aryl)-butylbenzamides and Their conformationally constrained analogues. Potent antagonists of the human neurokinin-2 (NK(2)) receptor” (Bioorg Med Chem Lett, 2003)
